From ChEMBL document CHEMBL1144606, “Immunomodulatory effects of two sapogenins 1 and 2 isolated from Luffa cylindrica in Balb/C mice” (Bioorg Med Chem Lett, 2007)
Activity calls are given as the source filed them. The calls are words filed in the database; no cut-off is given here.

Experiments:
[1] = test system: Mus musculus; experiment: Immunostimulatory effect against SRBC-induced hormonal response in BALB/c mouse assessed as antibody production at 10 m/kg; assay type: functional, organism-based
[2] = test system: Mus musculus; experiment: Immunostimulatory effect against SRBC-inducing hormoral response in BALB/c mouse assessed as antibody production at 100 mg/kg; assay type: functional, organism-based; parameters: dose 100 mg/kg
[3] = test system: Mus musculus; experiment: Immunostimulatory effect against SRBC-inducing plaque forming cells in BALB/c mouse assessed as antibody secreting B cells at 10 mg/kg, po relative to control; assay type: functional, organism-based; parameters: dose 10 mg/kg
[4] = test system: Mus musculus; experiment: Enhancement of ConA-Stimulated lymphocyte proliferation in BALB/c mouse at 10 mg/kg by MTT assay; assay type: functional, organism-based; parameters: dose 10 mg/kg
[5] = test system: Splenocyte; experiment: Enhancement of ConA-stimulated blastogenic responsiveness in BALB/c mouse splenocytes at 10 mg/kg; assay type: functional, organism-based; parameters: dose 10 mg/kg
[6] = test system: Mus musculus; experiment: Increased phagocytic index in BALB/c mouse at 10 mg/kg; assay type: organism-based; parameters: dose 10 mg/kg; conditions: in vivo
[7] = test system: Mus musculus; experiment: Immunostimulatory effect against SRBC-inducing plaque forming cells in BALB/c mouse assessed as antibody secreting B cells at 100 mg/kg, po relative to control; assay type: functional, organism-based; parameters: dose 100 mg/kg
[8] = test system: Mus musculus; experiment: Enhancement of ConA-Stimulated lymphocyte proliferation in BALB/c mouse at 100 mg/kg by MTT assay; assay type: functional, organism-based; parameters: dose 100 mg/kg
[9] = test system: Splenocyte; experiment: Enhancement of ConA-stimulated blastogenic responsiveness in BALB/c mouse splenocytes at 100 mg/kg; assay type: functional, organism-based; parameters: dose 100 mg/kg
[10] = test system: Mus musculus; experiment: Enhancement of LPS-Stimulated lymphocyte proliferation in BALB/c mouse at 10 mg/kg by MTT assay; assay type: functional, organism-based; parameters: dose 10 mg/kg
[11] = test system: Splenocyte; experiment: Enhancement of LPS-stimulated blastogenic responsiveness in BALB/c mouse splenocytes at 10 mg/kg; assay type: functional, organism-based; parameters: dose 10 mg/kg
[12] = test system: Splenocyte; experiment: Enhancement of LPS-stimulated blastogenic responsiveness in BALB/c mouse splenocytes at 100 mg/kg; assay type: functional, organism-based; parameters: dose 100 mg/kg
[13] = test system: Mus musculus; experiment: Enhancement of LPS-Stimulated of lymphocyte proliferation in BALB/c mouse at 100 mg/kg by MTT assay; assay type: functional, organism-based; parameters: dose 100 mg/kg

Compound	Activity [1]	Activity [2]	Activity [3]	Activity [4]	Activity [5]	Activity [6]	Activity [7]	Activity [8]	Activity [9]	Activity [10]	Activity [11]	Activity [12]	Activity [13]
CC1(C)CC[C@]2(C(=O)O)CC[C@]3(C)C(=CC[C@@H]4[C@@]5(C)CC[C@H](O)C(C)(C)[C@@H]5CC[C@]43C)[C@@H]2C1 [OLEANOLIC_ACID]	Active	inactive	Active	Active	Active	Active	Active	Active	Active	Active	Active	–	–
CC1(C)CC[C@]2(C(=O)O)[C@H](O)C[C@]3(C)C(=CC[C@@H]4[C@@]5(C)CC[C@H](O)C(C)(C)[C@@H]5CC[C@]43C)[C@@H]2C1	–	–	Active	Active	Active	Active	Active	Active	Active	–	–	Active	Active
